Data reported in patent US20110098257A1, “DERIVATIVES OF 4- OR 5-AMINOSALICYLIC ACID” (ANTIBE THERAPEUTICS INC., priority 2005, published 2011).

Columns and labels:
COX-2 mRNA = assay: Colonic mRNA expression by RT-PCR in TNBS-induced colitis; format: in vivo, mice; conditions: dose equimolar to mesalamine 50 mg/kg; FIG. 13
Method: (§1) The same model was used as described above. In this example, the effects of mesalamine (50 mg/kg) were compared to those of equimolar doses of Compound XXXV. In addition to measuring the severity of colitis by measuring disease activity score and MPO activity, tissues were processed for measurement of a number of genes for inflammatory cytokines and other mediators.
(§2) In particular, mRNA expression in mice of tumour necrosis factor-alpha (TNF-α), interferon gamma (IFN-[…]γ), colonic interleukin (IL)-1, IL-2, IL-10, IL-12 p40, RANTES, cyclooxygenase (COX)-1, COX-2, constitutive endothelial nitric oxide synthase (eNOS), and inducible NOS (iNOS) was measured as described in Wallace et al. (1999) Gastroenterology 117: 557-566, incorporated herein by reference.
(§3) Briefly, reverse transcription-polymerase chain reaction (RT-PCR) was used to detect and quantify mRNA of the particular cytokine/chemokine/enzyme. Glyceraldehyde-3-phosphate dehydrogenase (GAPDH) was used as the “housekeeping gene” for mRNA expression (i.e., as an internal control). For each sample, the ratio of the amplification of the target gene to the amplification of GAPDH (expression of each is measured by performing densitometry on gels) was obtained. Comparisons were then made between the relative amplification (expression) of the target gene in tissues for the treatment groups in comparison to the expression in tissues from healthy controls. Thus, the data shown in FIGS. 7-14 represent the relative expression of the target gene (normalized to GAPDH expression) as a ratio to the expression in healthy controls.

[1] = test system: mRNA for several pro-inflammatory cytokines and chemokines; assay: as above; format: in vivo, mice; conditions: dose equimolar to mesalamine 50 mg/kg; normalized to GAPDH, ratio to healthy controls
Method: as §1, §2, §3

eNOS mRNA = assay: as above; format: in vivo, mice; conditions: dose equimolar to mesalamine 50 mg/kg; FIG. 14
Method: as §1, §2, §3

COX-1 mRNA = assay: as above; format: in vivo, mice; conditions: dose equimolar to mesalamine 50 mg/kg; FIG. 13
Method: as §1, §2, §3

iNOS mRNA = assay: as above; format: in vivo, mice; conditions: dose equimolar to mesalamine 50 mg/kg; FIG. 14
Method: as §1, §2, §3

IL-10 mRNA = assay: as above; format: in vivo, mice; conditions: dose equimolar to mesalamine 50 mg/kg; normalized to GAPDH, ratio to healthy controls
Method: as §1, §2, §3

[2] = test system: leukocyte adherence in mesenteric post-capillary venules; assay: Leukocyte adherence to the vascular endothelium in vivo (intravital microscopy, aspirin-induced); design: species or system Rats
Method: Leukocyte adherence was studied using intravital microscopy, as described in detail previously (Wallace et al., (1993) Am. J. Physiol. 265: 993-998, incorporated hereto by reference). Rats were anesthetized with pentobarbital sodium (60 mg/kg i.p.) and cautery incisions were made along the abdominal region. A tracheotomy was performed to facilitate breathing. The rats were placed in a supine position, and a segment of the mesentery was exteriorized through the abdominal incision. The mesentery was carefully placed over an optically clear viewing pedestal that allowed for trans-illumination of a 2-cm^2 segment of tissue. All exposed tissue was covered with saline-soaked gauze to minimize dehydration. The temperature of the pedestal was kept at 37° C. and the mesentery was superfused with warmed bicarbonate-buffered saline (pH 7.4). An intravital microscope (Nikon L25/0.35) and a ×10 eyepiece were used to observe the mesenteric microcirculation. Post-capillary venules with diameters ranging from 20 to 40 μm were selected for the study. A video camera mounted on the microscope (Panasonic™ digital 5000) projected the image onto a monitor, and the images were recorded for playback analysis using a videocassette recorder. Images of the mesenteric microcirculation were recorded 5 minutes prior to aspirin administration (baseline), at the time of aspirin administration (time 0-5) and every 15 minutes for 60 minutes. Leukocyte adherence was blindly quantified from videotaped images of the vessels made over 5-min periods as the number of leukocytes that remained stationary along the vessel wall for 30 s or more (expressed per 100 μm venule length). Groups of rats (at least 5 in each) were pretreated with Compound XXXV (130 mg/kg), Compound XXVII (100 mg/kg), mesalamine (50 mg/kg), or vehicle 60 min prior to aspirin (or vehicle) administration. These drugs were given intragastrically. In some experiments, rats were treated with glibenclamide (10 mg/kg i.p.) or vehicle 30 min prior to administration of these compounds.

**Q.** Which “COX-2 mRNA expression” value (COX-2 mRNA) does the source give for `Nc1ccc(O)c(C(=O)Oc2ccc(-c3cc(=S)ss3)cc2)c1` [Compound XXXV, 5-Amino-2-hydroxy-benzoic acid 4-(5-thioxo-5H-[1,2]dithiol-3-yl)-phenyl ester] here?
**A.** suppressed

**Q.** And the “expression of mRNA for pro-inflammatory cytokines and chemokines” value [1]?
**A.** suppressed expression of mRNA for several pro-inflammatory cytokines and chemokines

**Q.** What about the “eNOS mRNA expression” value (eNOS mRNA) of the same compound?
**A.** suppressed

**Q.** What about the “COX-1 mRNA expression” value (COX-1 mRNA) of the same compound?
**A.** suppressed

**Q.** What about the “iNOS mRNA expression” value (iNOS mRNA) of the same compound?
**A.** suppressed

**Q.** And the “expression of IL-10 mRNA” value (IL-10 mRNA)?
**A.** did not suppress expression of IL-10 mRNA

**Q.** What about the “aspirin-induced leukocyte adherence with glibenclamide pretreatment” value ([2]; glibenclamide 10 mg/kg i.p. 30 min prior to the compound, compound plus aspirin, FIG. 19) of the same compound?
**A.** glibenclamide reversed the inhibitory effect

**Q.** And the “aspirin-induced leukocyte adherence, final time period” value ([2]; minutes 60-65, Compound XXXV 130 mg/kg, Compound XXVII 100 mg/kg, FIG. 20)?
**A.** suppress aspirin-induced leukocyte adherence

**Q.** And the “aspirin-induced leukocyte adherence, final time period, with glibenclamide pretreatment” value ([2]; minutes 60-65, glibenclamide 10 mg/kg i.p., FIG. 20)?
**A.** glibenclamide pretreatment to reverse this inhibitor effect

**Q.** And the “aspirin-induced increase in leukocyte adherence” value ([2]; pretreatment: Compound XXXV 130 mg/kg or mesalamine 50 mg/kg intragastrically 60 min prior to aspirin, glibenclamide 10 mg/kg i.p., FIG. 19)?
**A.** prevented the aspirin-induced increase in leukocyte adherence
